Reference: patent US20070185161A1, “Bicyclic substituted indole-derivative steroid hormone nuclear receptor modulators” (priority 2004, published 2007)

Biological target: T1, human MR (Homo sapiens, UniProt P08235)
T1 construct: The full length human MR gene is cloned from a human kidney or human brain cDNA library; made in house; host or cells: SF9 insect cells (baculovirus)
T1 sequence (P08235 1-984): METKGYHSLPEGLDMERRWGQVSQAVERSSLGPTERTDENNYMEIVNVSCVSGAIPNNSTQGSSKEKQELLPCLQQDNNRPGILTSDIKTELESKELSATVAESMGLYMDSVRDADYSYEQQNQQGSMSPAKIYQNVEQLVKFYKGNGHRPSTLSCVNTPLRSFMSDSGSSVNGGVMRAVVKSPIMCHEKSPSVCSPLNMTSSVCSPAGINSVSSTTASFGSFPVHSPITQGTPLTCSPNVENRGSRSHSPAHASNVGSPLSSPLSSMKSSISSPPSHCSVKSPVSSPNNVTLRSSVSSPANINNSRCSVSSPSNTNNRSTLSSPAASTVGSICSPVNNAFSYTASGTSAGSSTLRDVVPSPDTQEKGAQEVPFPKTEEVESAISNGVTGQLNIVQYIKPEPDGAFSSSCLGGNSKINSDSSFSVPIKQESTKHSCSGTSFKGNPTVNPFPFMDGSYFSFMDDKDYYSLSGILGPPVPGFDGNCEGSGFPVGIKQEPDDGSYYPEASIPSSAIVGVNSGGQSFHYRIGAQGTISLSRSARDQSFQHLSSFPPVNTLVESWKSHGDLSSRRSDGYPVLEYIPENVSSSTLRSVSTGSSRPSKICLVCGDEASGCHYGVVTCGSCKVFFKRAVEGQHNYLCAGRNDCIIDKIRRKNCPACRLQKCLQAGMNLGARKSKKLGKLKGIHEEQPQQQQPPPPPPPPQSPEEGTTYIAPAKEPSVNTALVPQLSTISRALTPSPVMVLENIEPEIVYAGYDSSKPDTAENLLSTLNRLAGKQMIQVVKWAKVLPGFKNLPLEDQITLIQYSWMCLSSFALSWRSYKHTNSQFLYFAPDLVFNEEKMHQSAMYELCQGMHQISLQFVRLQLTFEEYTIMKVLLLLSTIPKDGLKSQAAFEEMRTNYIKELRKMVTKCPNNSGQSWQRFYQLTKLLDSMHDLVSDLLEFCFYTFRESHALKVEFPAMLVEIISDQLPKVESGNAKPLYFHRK
Assay: Mineralocorticoid Receptor Binding Assay (Method 1)
Conditions: [3H]-aldosterone, racemic mixture unless otherwise indicated
In short: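 Lysate of Sf9 cells expressing baculovirus full-length human MR (20-25 μg protein) incubated with 0.5 nM [3H]-aldosterone and test compound, pH 7.5 molybdate buffer, 16 h at 4 °C. Bound ligand collected by filtration and counted by scintillation. IC50 for displacement; Ki by Cheng-Prusoff.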

SMILES | Ki [nM]
CNCCCC1(c2c[nH]c3c(NS(C)(=O)=O)cccc23)CCc2cc(F)ccc21 (centres unmarked) [Example 42, N-{3-[5-Fluoro-1-(3-methylamino-propyl)-indan-1-yl]-1H-indol-7-yl}-methanesulfonamide] | ≤ 500
CS(=O)(=O)Nc1cccc2c(C3(CCCN4CCOCC4)CCc4cc(F)ccc43)c[nH]c12 (centres unmarked) [Example 44, N-{3-[5-Fluoro-1-(3-morpholin-4-yl-propyl)-indan-1-yl]-1H-indol-7-yl}-methanesulfonamide] | ≤ 500
